# Patent US9581606B2, “Method for determining depression, kit for analyzing serotonin transporter, and kit for analyzing ubiquitinated serotonin transporter in blood” (MEIJO UNIVERSITY, priority 2011, dated 2017)
# Where a SMILES comes first, the peptide text is derived from it. The star is where a group is joined. Cbz = O=C(OCc1ccccc1)*
# Key:
# [1] = test system: ubiquitinated serotonin transporter protein; experiment: Expression amount of ubiquitinated serotonin transporter protein in established lymphocytes (UBIQAPTURE-Q kit, Western blotting); format: cell-based, human; conditions: MG132 20 μM, 4 hours
# Experimental: The mouse brain sample, cells, and established lymphocytes were subjected to ultrasonic fragmentation at 4° C. using a sonicator in a lysis buffer [20 mM Tris-HCl, 150 mM NaCl, 50 mM NaF, 1 mM EDTA, 1 mM EGTA, 1% (w/v) TRITONX-100, 1 mM sodium orthovanadate, 0.1% (w/v) SDS, 1% (w/v) sodium deoxycholate, 0.5 mM dithiothreitol, 10 mM sodium pyrophosphate decahydrate, 1 mM phenylmethylsulfonyl fluoride, 10 μg/mL aprotinin, 10 μg/mL leupeptin, and 10 μg/mL pepstatin (pH 7.4)], and thus a homogenate was obtained through these operations. The homogenate was centrifuged for 20 minutes at 4° C. and 13000×g, and the supernatant thus obtained was used. A sample buffer [0.125 M Tris-HCl (pH 6.8), 2% (w/v) SDS, 5% (w/v) glycerol, 0.002% (w/v) bromophenol blue, and 5% (w/v) 2-mercaptoethanol] was added to each of the supernatant samples whose protein content had been adjusted, and then boiled at 95° C. for 5 minutes. Thereafter, the protein (20 μg) was subjected to electrophoresis using a 10% polyacrylamide gel, the protein was transferred to a polyvinylidene difluoride (PVDF) membrane (Millipore Corporation, Billerica, Mass., USA), and blocked using Detector Block Kit (Kirkegaard and Perry Laboratories, Gaithersburg, Md., USA). […] The luminescence due to the immune complex was detected using ECL (GE Healthcare Biosciences, Piscataway, N.J., USA), which is a Western blotting detection reagent, and the expression amount was calculated by the image analysis of the luminescence intensity. […]
# According to the procedure in the above-described A (5), the ubiquitinated protein was isolated from the homogenate homogenized with a lysis buffer using UBIQAPTURE-Q kit (Enzo Life Sciences International, Inc, Plymouth Meeting, Pa.), and the ubiquitinated serotonin transporter protein was detected by Western blotting under the same conditions as in the A (5). […]
# [2] = test system: serotonin transporter protein; experiment: Expression amount of serotonin transporter protein in established lymphocytes (Western blotting); format: cell-based, human; conditions: for expression amount of the serotonin transporter: MG132 20 μM, 4 hours, control = healthy subjects without MG132
# Experimental: The mouse brain sample, cells, and established lymphocytes were subjected to ultrasonic fragmentation at 4° C. using a sonicator in a lysis buffer [20 mM Tris-HCl, 150 mM NaCl, 50 mM NaF, 1 mM EDTA, 1 mM EGTA, 1% (w/v) TRITONX-100, 1 mM sodium orthovanadate, 0.1% (w/v) SDS, 1% (w/v) sodium deoxycholate, 0.5 mM dithiothreitol, 10 mM sodium pyrophosphate decahydrate, 1 mM phenylmethylsulfonyl fluoride, 10 μg/mL aprotinin, 10 μg/mL leupeptin, and 10 μg/mL pepstatin (pH 7.4)], and thus a homogenate was obtained through these operations. The homogenate was centrifuged for 20 minutes at 4° C. and 13000×g, and the supernatant thus obtained was used. A sample buffer [0.125 M Tris-HCl (pH 6.8), 2% (w/v) SDS, 5% (w/v) glycerol, 0.002% (w/v) bromophenol blue, and 5% (w/v) 2-mercaptoethanol] was added to each of the supernatant samples whose protein content had been adjusted, and then boiled at 95° C. for 5 minutes. Thereafter, the protein (20 μg) was subjected to electrophoresis using a 10% polyacrylamide gel, the protein was transferred to a polyvinylidene difluoride (PVDF) membrane (Millipore Corporation, Billerica, Mass., USA), and blocked using Detector Block Kit (Kirkegaard and Perry Laboratories, Gaithersburg, Md., USA). A primary antibody (anti-SERT) (Millipore, Billerica, Mass.) against the serotonin transporter protein was added to the PVDF membrane, allowed to stand overnight in a refrigerator (4° C.), and then a secondary antibody (HRP-conjugated anti-rabbit IgG) (Kirkegaard and Perry Laboratories) was added, and allowed to stand at room temperature for 3 hours. The luminescence due to the immune complex was detected using ECL (GE Healthcare Biosciences, Piscataway, N.J., USA), which is a Western blotting detection reagent, and the expression amount was calculated by the image analysis of the luminescence intensity.
# Subsequently, in order to determine the expression amount of the β-actin protein as the endogenous reference material, stripping was carried out, a primary antibody (anti-β-actin) (Santa Cruz Biotechnology, Santa Cruz, Calif.) was added, and incubated. In the result thus obtained, the band of the serotonin transporter protein was corrected by the band of the β actin protein, and the expression amount to the control group was expressed in terms of the percentage (%).
# Each of the blood samples aseptically collected from the above objects was diluted two folds with a sterile normal saline solution. Subsequently, the diluted blood sample was quietly poured into the tube containing 3.5 ml of the Ficoll-Paque liquid (General Electric Company, Uppsala, Sweden), and centrifuged at 600×g for 30 minutes. […]
# wild type C57BL/6J mouse = experiment: Forced swimming test, control mouse; format: in vivo
# Experimental: (§1) Experimental equipment and procedure: the experimental equipment was a water tank (diameter 15 cm×height 20 cm) containing water (water temperature about 22° C.×depth 13 cm). The wild type C57BL/6J mouse as the control or the model mouse was placed in the water tank, and immediately after that, the immobility time was measured using Scanet MV-10AQ (Brainscience Idea, Co., Ltd. Osaka, Japan) for 10 minutes at intervals of 1 minute.
# (§2) 5 or 10 mg/kg sertraline (Pfizer, Groton, CT) suspended in 0.3% carboxymethyl cellulose sodium, and 10 or 20 mg/kg imipramine (Sigma, St. Louis, Mo.) dissolved in a normal saline solution were intraperitoneally administered 30 minutes before the main test. As the control, the solvent was intraperitoneally administered.
# [3] = test system: MAGE-D1 gene-deficient mouse; experiment: Forced swimming test, model mouse; format: in vivo; conditions: for effect on the increase of the immobility time: forced swimming test (FIG. 1)
# From the text: The targeting vector (Stratagene: pBlueScript), which allow homologous recombination between the MAGE-D1 gene (Gene bank: NM_019791.2) exon and the drug (G418)-resistant gene (GenBank: U00004.1), was electroporated into the embryonic stem (ES) cells (acquired from Research Institute of National Center for Geriatrics and Gerontology) derived from the 129Svj mouse, and the drug-resistant colony was selected. The homologous recombinant was identified from the selected resistant colony by Southern blotting. The desired homologous recombinant ES cell clone thus identified was injected into the blastocyst stage embryo of the C57BL/6J mouse, thereby making a chimera mouse. The chimera mouse was mated with the wild type C57BL/6J mouse, thereby making a hetero MAGE-D1 gene-deficient mouse of F1 generation. The wild type C57BL/6J was mated with the hetero MAGE-D1 gene-deficient mouse up to the F10 generation, and the mouse having 99.9 percent (as a result of one mating with the C57BL/6J mouse, about half the genes of the newborn mouse are derived from the C57BL/6J mouse used for mating; in other words, as a result of the n times of mating with the C57BL/6J mouse, about [1−(1/2)^n+1]×100% genes are likely derived from the C57BL/6J mouse) C57BL/6J genetic background was used. The mouse having the genetic background was used as the MAGE-D1 gene-deficient mouse (hereinafter may be referred to as model mouse) in the following test.
# as §1, §2
# [4] = established lymphocytes from patients with depression to whom the antidepressant was not effective
# [5] = 10 mg/kg intraperitoneally 30 minutes before test
# [6] = 20 mg/kg intraperitoneally 30 minutes before test
# [7] = 5 mg/kg intraperitoneally 30 minutes before test
Compound,"expression amount of the ubiquitinated serotonin transporter ([1]; established lymphocytes from healthy subjects, control = healthy subjects without MG132) [%]",expression amount of the ubiquitinated serotonin transporter ([1]; established lymphocytes from patients with depression to whom fluvoxamine was effective) [%],"expression amount of the ubiquitinated serotonin transporter [1, 4] [%]",expression amount of the serotonin transporter ([2]; established lymphocytes from healthy subjects) [%],expression amount of the serotonin transporter ([2]; established lymphocytes from patients with depression to whom the antidepressant was effective) [%],"expression amount of the serotonin transporter [2, 4] [%]","effect of addition on the expression amount of the serotonin transporter ([2]; established lymphocytes of the patients with depression, regardless of effect of the antidepressant)",average of the immobility time ratio (wild type C57BL/6J mouse; [5]) [%],average of the immobility time ratio (wild type C57BL/6J mouse; [6]) [%],"average of the immobility time ratio [3, 5] [%]","average of the immobility time ratio [3, 6] [%]",effect on the increase of the immobility time [3],average of the immobility time ratio (wild type C57BL/6J mouse; [7]) [%],"average of the immobility time ratio [3, 7] [%]"
CC(C)C[C@@H](C=O)NC(=O)[C@H](CC(C)C)NC(=O)[C@H](CC(C)C)NC(=O)OCc1ccccc1 [MG132] (Cbz-Leu-Leu-Leu-aldehyde),130.6,103.4,88.5,173.8,141.9,143.6,did not significantly increase,–,–,–,–,–,–,–
CN(C)CCCN1c2ccccc2CCc2ccccc21 [imipramine],–,–,–,–,–,–,–,47.7,39.0,60.2,40.6,significantly and dose-dependently decreased,–,–
CN[C@H]1CC[C@@H](c2ccc(Cl)c(Cl)c2)c2ccccc21 [sertraline],–,–,–,–,–,–,–,37.7,–,45.7,–,significantly and dose-dependently decreased,37.4,56.3
